Results on six compounds are retold here after patent publication US5679695A, “Aryl and heteroaryl compounds having anti-retrovirus activity” (The University of Connecticut, priority 1995, dated 1997).

Values joined by “and” are separate entries in the source; they are usually repeats but may differ in a detail not shown here. Equal entries are not always repeated. Where two headings read alike, the source gives them in different places. Bounds are passed on as bounds.

In series [1] the test system is HIV. The series is described as follows: Anti-HIV activity in MT-2. It counts as cell-based. The text has this:
(§1) Obviously, there is a structure activity relationship with respect to the efficacy of the compounds of the present invention. Factors that affect the relationship may include steric effects, electronic effects, (electron withdrawing or electron donating ability), resonance effects, hydrophobic,hydrophilic, hydrogen bonding parameters, etc. […] Based on the data, it has been determined that there is a direct correlation between the log (EC50)^-1 and the electronic effect of a substituent (a) or more precisely the sum of the sigma (σ) values. (The greater the electron withdrawing ability of a substituent, the higher the value of σ, while a better electron donating group has a lower value of σ.) There appears to be a direct correlation between log (EC50)^-1 and the Σσ; as the Σσ increases, so does the log (EC50)^-1. The addition of substituents to the diphenyl sulfone will affect the factors discussed hereinabove, thus both the log (EC50)^-1 and the Σσ will be affected. Thus for the diphenyl sulfone derivative [drawing 25] the relation is […]

For the next series, the system named is HIV-1. The series is described as follows: XTT assay of protection from HIV-1 cytopathic effect, infected, CEM-IW. It counts as cell-based, Human Immunodeficiency Virus. The protocol: (§2) Another assay for testing the efficacy of the compounds is the procedure* used in the National Cancer Institute's test for agents active against Human Immunodeficiency Virus (HIV). It is designed to detect agents acting at any stage of the virus reproductive cycle. The assay basically involves the killing of T4 lymphocytes by HIV. Small amounts of HIV are added to cells, and a complete cycle of virus reproduction is necessary to obtain the required cell killing. Agents that interact with virions, cells, or virus gene-products to interfere with viral activities will protect cells from cytolysis. The system is automated in several features to accommodate large numbers of candidate agents and is generally designed to detect anti-HIV activity. However, compounds that degenerate, or are rapidly metabolized in the culture conditions may not show activity in this screen. All tests are compared with at least one positive (e.g., AZT-treated) control done at the same time under identical conditions.
(§3) * Weislow. O. W., Kiser, R., Fine, D., Bader, J., Shoemaker, R. H., Boyd, M. R.: New soluble-formazan assay for HIV-1 cytopathic effects: application to high-flux screening of synthetic and natural products for AIDS-antiviral activity. J. Natl. Cancer Inst. 81:577-586, 1989.
(§4) 1. The Candidate agent is dissolved in dimethyl sulfoxide (unless otherwise instructed) then diluted 1:100 in cell culture medium before preparing serial half-log10 dilutions. T4 lymphocytes (CEM cell line) are added and after a brief interval HIV-1 added, resulting in a 1:200 final dilution of the compound. Uninfected cells with the compound serve as a toxicity control, and infected and uninfected cells without compound serve as basic controls.
(§5) 2. Cultures are incubated at 37° in a 5% carbon dioxide atmosphere for 6 days.
(§6) 3. The tetrazolium salt, XTT, is added to all wells, and cultures are incubated to allow formazan color development by viable cells.
(§7) 4. Individual wells are analyzed spectrophotometrically to quantitate formazan production, and in addition are viewed microscopically for detection of viable cells and confirmation of protective activity.
(§8) 5. Drug-treated virus-infected cells are compared with drug-treated noninfected cells and with other appropriate controls (untreated infected and untreated noninfected: cells, drug-containing wells without cells, etc.) on the same plate.
(§9) 6. Data are reviewed in comparison with other tests done at the same time and a determination about activity is made.

The nature of series [2]: XTT toxicity control, uninfected, CEM-IW. The format is cell-based. To be noted: human, cem-iw cells, read-out: Uninfected response. On the procedure: as §2, §3, §4, §5, §6, §7, §8, §9
Background: Tetrazolium assays rely on reduction of a dye to a coloured formazan, in cell work by metabolically active cells.

The next series has as its system CEM-IW. The series is described as follows: XTT toxicity control, uninfected, CEM-IW. The format is cell-based. On the procedure:
as §2, §3, §4, §5, §6, §7, §8, §9

For series [3], the system named is HIV. Kind of series: Anti-HIV assays (summary statements, structure-activity trends). The format is cell-based.
Description: as §1

[4] abbreviates: Human immunodeficiency virus 1, read-out: MT-2 EC50, M.
Setting [5] is: Human immunodeficiency virus 1, CEM-IW, summary table, read-out: CEM-IW EC50.
[6] abbreviates: Human immunodeficiency virus 1, MT-2, summary table, read-out: MT-2 EC50.

`O=[N+]([O-])c1ccccc1Sc1ccccc1[N+](=O)[O-]` [Compound 5]: the results for the EC50 with HIV [1] (setting [4]) and with HIV-1 (setting [5]) were 5.77 µM and 7.87 µM, respectively.

Turning to `O=[N+]([O-])c1ccccc1S(=O)(=O)c1ccccc1[N+](=O)[O-]` [Compound 6, 2,2'-dinitrodiphenyl sulfone], in series [2] (1.45 × 10^-5 Molar), the viability at 14.5 µM was determined as 92.5%. Also, the viability at 1.45 µM in series [2] (1.45 × 10^-6 Molar) turned out to be 87.1%. Also, the viability at 4.59 µM turned out to be 90% in series [2] (4.59 × 10^-6 Molar) and 94% in the series on HIV-1 (Human immunodeficiency virus 1, CEM-IW, 4.59 × 10^-6 Molar, read-out: Infected response). Besides, the Uninfected response with CEM-IW (1.45 × 10^-4 Molar, 145 µM) is 109.82% of Control and 97.75% of Control and 89.72% of Control and 104.62% of Control; in the series with CEM-IW (1.45 × 10^-5 Molar, 14.5 µM), 97.21% of Control and 84.55% of Control and 104.22% of Control; in the series with CEM-IW (1.45 × 10^-6 Molar, 1.45 µM) it was 93.92% of Control and 100.12% of Control and 105.53% of Control; with CEM-IW (1.45 × 10^-7 Molar, 0.145 µM) it was 80.72% of Control and 98.46% of Control and 109.08% of Control and 105.53% of Control; with CEM-IW (4.58 × 10^-5 Molar, 45.8 µM) it was 100.68% of Control and 106.72% of Control and 80.53% of Control and 105.99% of Control; with CEM-IW (4.59 × 10^-6 Molar, 4.59 µM), 96.62% of Control and 82.26% of Control and 98.81% of Control. The Uninfected response with CEM-IW (4.60 × 10^-7 Molar, 0.46 µM) was 74.84% of Control and 97.86% of Control and 88.80% of Control and 107.87% of Control; in the series on CEM-IW (4.60 × 10^-8 Molar, 0.046 µM), 88.77% of Control and 104.88% of Control and 105.92% of Control and 111.46% of Control. In addition, the IC50 (as a rule, the concentration that gives 50% inhibition) in the series on CEM-IW (uninfected (toxicity)) is over 145 µM. Further, the EC50 (as a rule, the concentration at which the effect is half-maximal) in the series on HIV [1] (setting [4]) is 0.747 µM; with HIV-1 (CEM-IW, infected, read-out: EC50), 0.829 µM and 1.14 µM and 0.892 µM; in the series with HIV-1 (Human immunodeficiency virus 1, CEM-IW, infected, read-out: EC50), 0.706 µM; with HIV-1 (Human immunodeficiency virus 1, read-out: CEM-IW EC50, M, CEM-IW, summary table), 5.44 µM. For the same compound, the Conclusion entry in the series with HIV-1 (CEM-IW) was “ACTIVE”. The “TI50 (IC/EC)” value with HIV-1 (CEM-IW) was > 2.05 × 10^+2 and > 1.75 × 10^+2 and > 1.27 × 10^+2 and > 1.62 × 10^+2. In addition, the Infected response was 94.22% of Control and 83.35% of Control and 80.76% of Control in the series on HIV-1 (CEM-IW, 1.45 × 10^-4 Molar, 145 µM); 100.31% of Control and 95.03% of Control and 82.49% of Control and 79.91% of Control in the series with HIV-1 (CEM-IW, 1.45 × 10^-5 Molar, 14.5 µM); 86.23% of Control and 82.50% of Control and 62.75% of Control and 68.40% of Control in the series with HIV-1 (CEM-IW, 1.45 × 10^-6 Molar, 1.45 µM); 95.59% of Control and 83.75% of Control and 82.81% of Control in the series on HIV-1 (CEM-IW, 4.58 × 10^-5 Molar, 45.8 µM); 92.81% of Control and 84.87% of Control and 80.73% of Control in the series on HIV-1 (CEM-IW, 4.59 × 10^-6 Molar, 4.59 µM); 29.70% of Control and 24.44% of Control and 37.65% of Control in the series on HIV-1 (CEM-IW, 4.60 × 10^-7 Molar, 0.46 µM). Also, the viability at 145 µM in the series on HIV-1 (Human immunodeficiency virus 1, CEM-IW, 1.45 × 10^-4 Molar, read-out: Infected response) was 97.4%. Also, the viability at 45.8 µM with HIV-1 (Human immunodeficiency virus 1, CEM-IW, 4.58 × 10^-5 Molar, read-out: Infected response) was 99%. For the same compound, the viability at 0.46 µM in the series with HIV-1 (Human immunodeficiency virus 1, CEM-IW, 4.60 × 10^-7 Molar, read-out: Infected response) came out at 42%. Besides, the “anti-HIV activity (in words)” value in the series on HIV [3] is recorded as “increased potency”.

Turning to `O=S(=O)(c1ccccc1)c1ccccn1` [Compound 7, phenyl 2-pyridyl sulfone], the EC50 in the series on HIV [1] (setting [6]) was 75.7 µM; with HIV-1 (setting [5]), 206 µM. Moreover, the “anti-HIV activity (in words)” value in the series on HIV [3] is recorded as “shows anti-HIV activity”.

Turning to `O=S(=O)(c1ccccc1)c1ccccc1` [Compound 3, diphenyl sulfone], in the series with HIV [1] (setting [4]), the EC50 was determined as 77.5 µM.

`[O-][S+](c1ccccc1)c1ccccc1` [H H H H SO]: the EC50 in the series on HIV [1] (setting [4]) worked out at 358 µM.

In the case of `O=[N+]([O-])c1ccccc1S(=O)(=O)c1ccc(Cl)cc1` [Compound 4, 1-(4-chlorophenylsulfonyl)-2-nitrobenzene], the EC50 was determined as 38.2 µM in the series with HIV [1] (setting [6]) and 42.9 µM with HIV-1 (setting [5]).
